Inhibition data for seven compounds are collected here from ChEMBL document CHEMBL3856190, “Novel spirothiazamenthane inhibitors of the influenza A M2 proton channel” (Eur J Med Chem, 2016).

Experiment [1] deals with MDCK. The experiment is described as follows: Antiviral activity against amantadine-resistant Influenza A virus A/Puerto Rico/8/34 expressing M2 proton channel S31N mutant infected in MDCK cells assessed as inhibition of viral replication at 0.001 to 100 uM measured after 10 hrs by miniplaque assay. It is filed as functional, cell-based. The note with it: Influenza A virus (A/Puerto Rico/8/1934(H1N1)).

For experiment [2], the system named is MDCK. The experiment in a line: Antiviral activity against amantadine-resistant Influenza A virus A/Puerto Rico/8/34 expressing M2 proton channel V27A mutant infected in MDCK cells assessed as inhibition of viral replication at 100 uM measured after 10 hrs by miniplaque assay. It is filed as functional, cell-based. The note with it: Influenza A virus (A/Puerto Rico/8/1934(H1N1)).

Active and inactive are the calls of the source. No cut-off for these calls is given here.

For `CCCCN1CCN(CCNC2=NC(C)(C)[C@]3(CC[C@H](C)CC3)S2)CC1`, the inhibition entry in experiment [1] and in experiment [2] was “Active” each time.

For the compound `CC(C)CCN1CCN(CCNC2=NC(C)(C)[C@]3(CC[C@H](C)CC3)S2)CC1`, the inhibition entry in experiment [1] and in experiment [2] was “Active” in each case.

Consider `CCCCCCCCN1CCN(CCNC2=NC(C)(C)[C@]3(CC[C@H](C)CC3)S2)CC1`, for which the inhibition entry in experiment [1] is “Active”.

Consider `CCOCCN1CCN(CCNC2=NC(C)(C)[C@]3(CC[C@H](C)CC3)S2)CC1`, for which the inhibition entry in experiment [1] and in experiment [2] was “Active” throughout.

In the case of `CC1(C)N=C(NCCN2CCN(Cc3ccccc3)CC2)S[C@]12CC[C@@H](C)CC2`, the inhibition result in experiment [1] and in experiment [2] was “Active” each time.

In the case of `CN1CCN(CCNC2=NC(C)(C)[C@]3(CC[C@H](C)CC3)S2)CC1`, in experiment [1], the inhibition entry is “Active”.

`CN(C)CCN1CCN(CCNC2=NC(C)(C)[C@]3(CC[C@H](C)CC3)S2)CC1`: the inhibition result in experiment [1] was “Active”.
